Laboratory results reported in patent publication US11440913B2, “Aminoimidazopyridazines as kinase inhibitors” (BRISTOL-MYERS SQUIBB COMPANY, priority 2017, dated 2022).
Where a name gives a salt, the structure may show the parent alone. Read-outs that look alike come from different tables or passages of the source.

Columns and labels:
[1] = biological target: His-GST-TVMV-hRIPK1(1-324) (Homo sapiens (Human), UniProt Q13546); assay: RIPK1 HTRF Binding Assay; conditions: HTRF binding, 1 h at rt; read-out: RIPK1 (IC50)
Sequence of His-GST-TVMV-hRIPK1(1-324) (Q13546 1-324): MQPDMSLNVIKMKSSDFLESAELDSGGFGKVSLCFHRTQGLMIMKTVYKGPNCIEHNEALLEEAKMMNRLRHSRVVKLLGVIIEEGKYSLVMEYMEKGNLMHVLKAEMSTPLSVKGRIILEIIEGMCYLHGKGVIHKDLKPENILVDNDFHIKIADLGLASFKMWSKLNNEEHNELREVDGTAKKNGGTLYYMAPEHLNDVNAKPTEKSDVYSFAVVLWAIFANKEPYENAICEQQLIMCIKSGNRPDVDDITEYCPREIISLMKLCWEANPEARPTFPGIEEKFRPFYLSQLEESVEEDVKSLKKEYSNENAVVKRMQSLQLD
In short: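 HTRF probe-displacement binding: 1 nM His-GST-TVMV-hRIPK1(1-324) (baculovirus construct), 90.6 nM probe, 0.2 nM anti-GST-Tb in 20 mM HEPES, 10 mM MgCl2, 0.015% Brij-35, 4 mM DTT, 0.05 mg/mL BSA. Incubated 1 h at rt; FRET 520/495 nm ratio, inhibition relative to DMSO-only wells.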

[2] = system: MLKL phosphorylation in HT29-L23 human colorectal adenocarcinoma cells; assay: MLKL Phosphorylation High-Content Assay; assay type: cell-based; conditions: 6 h, necroptosis induced with TNFα, SMAC mimetic and Z-VAD, read-out: pMLKL (IC50)
In short: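 HT29-L23 cells pretreated 30 min at 37 °C with compound (6.25 to 0.106 μM final), then necroptosis induced with TNFα 35 ng/mL, SMAC mimetic 700 nM and Z-VAD 140 nM for 6 h. Fixed cells immunostained for MLKL pS358 and imaged; IC50 and Ymax from 4-parameter logistic fit.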

## CC(=O)Nc1cn2nc(-c3ccc(C)c(C(=O)NCC[C@@H](O)c4ccc(Cl)cc4)c3)ccc2n1 [Example 397, N-[(3R)-3-(4-chlorophenyl)-3-hydroxypropyl]-5-{2-acetamidoimidazo [1,2-b]pyridazin-6-yl}-2-methylbenzamide]
[1]
  IC50: 3 nM
[2]; Homo sapiens
  IC50: 3 nM

## CC(=O)Nc1cn2nc(-c3cnc(C)c(C(=O)NCc4ccccc4OCC4CC4)c3)ccc2n1 [Example 227, N-{[2-(cyclopropylmethoxy)phenyl]methyl}-5-{2-acetamidoimidazo [1,2-b]pyridazin-6-yl}-2-methylpyridine-3-carboxamide]
[1]
  IC50: 8 nM
[2]; Homo sapiens
  IC50: 21 nM

## COc1nc(C)c(-c2ccc3nc(NC(C)=O)cn3n2)cc1C(=O)NCc1cc(F)cc(F)c1OCC1CC1 [Example 300, N-{[2-(cyclopropylmethoxy)-3,5-difluorophenyl]methyl}-5-{2-acetamidoimidazo[1,2-b]pyridazin-6-yl}-2-methoxy-6-methylpyridine-3-carboxamide]
[1]
  IC50: 4 nM
[2]; Homo sapiens
  IC50: 76 nM

## COc1nc(C)c(-c2ccc3nc(NC(C)=O)cn3n2)cc1C(=O)NCc1cc(F)cc(C(F)(F)F)c1 [Example 293, 5-{2-acetamidoimidazo[1,2-b]pyridazin-6-yl}-N-{[3-fluoro-5-(trifluoromethyl)phenyl]methyl}-2-methoxy-6-methylpyridine-3-carboxamide]
[1]
  IC50: 33 nM
[2]; Homo sapiens
  IC50: 135 nM

## COc1nc(C)c(-c2ccc3nc(NC(C)=O)cn3n2)cc1C(=O)NCc1ccccc1OC(C)C1CCCC1 (stereo not shown) [Example 303, N-{[2-(1-cyclopentylethoxy)phenyl]methyl}-5-{2-acetamidoimidazo[1,2-b]pyridazin-6-yl}-2-methoxy-6-methylpyridine-3-carboxamide]
[1]
  IC50: 22 nM
[2]
  IC50: 43 nM

## COc1ncc(-c2ccc3nc(NC(C)=O)c(C)n3n2)cc1C(=O)NCc1cccc(OC(F)(F)F)c1 [Example 257, 5-{2-acetamido-3-methylimidazo[1,2-b]pyridazin-6-yl}-2-methoxy-N-{[3-(trifluoromethoxy)phenyl]methyl}pyridine-3-carboxamide, TFA]
[1]
  IC50: 61 nM
[2]; Homo sapiens
  IC50: 69 nM

## CC(=O)Nc1cn2nc(-c3cnc(C)c(C(=O)NCc4cc(F)cc(F)c4OCC4CC4)c3)ccc2n1 [Example 214, N-{[2-(cyclopropylmethoxy)-3,5-difluorophenyl]methyl}-5-{2-acetamidoimidazo[1,2-b]pyridazin-6-yl}-2-methylpyridine-3-carboxamide]
[1]
  IC50: 1 nM
[2]; Homo sapiens
  IC50: 16 nM

## CC(=O)Nc1cn2nc(-c3cnc(C)c(C(=O)NCc4cc(F)cc(F)c4OC4CC(C)OC(C)C4)c3)ccc2n1 (stereo not shown) [Example 189, N-({2-[(2,6-dimethyloxan-4-yl)oxy]-3,5-difluorophenyl}methyl)-5-{2-acetamidoimidazo [1,2-b]pyridazin-6-yl}-2-methylpyridine-3-carboxamide]
[1]
  IC50: 91 nM
[2]; Homo sapiens
  IC50: 208 nM

## CC(=O)Nc1cn2nc(-c3ccc(C)c(C(=O)NCc4cc(C(=O)N5CCC(C)(C)C5)ccc4F)c3)ccc2n1 [Example 406, N-{[5-(3,3-dimethylpyrrolidine-1-carbonyl)-2-fluorophenyl]methyl}-5-{2-acetamidoimidazo [1,2-b]pyridazin-6-yl}-2-methylbenzamide]
[1]
  IC50: 163 nM
[2]; Homo sapiens
  IC50: 454 nM

## COc1ncc(-c2ccc3nc(NC(=O)C(C)C)cn3n2)cc1C(=O)NCc1cc(F)cc(F)c1OC1CCOCC1 [Example 265, N-{[3,5-difluoro-2-(oxan-4-yloxy)phenyl]methyl}-2-methoxy-5-[2-(2-methylpropanamido)imidazo[1,2-b]pyridazin-6-yl]pyridine-3-carboxamide]
[1]
  IC50: 3 nM
[2]; Homo sapiens
  IC50: 7 nM

## [2H]C([2H])([2H])[C@H](NC(=O)c1cc(-c2ccc3nc(NC(C)=O)cn3n2)cnc1C)c1cc(OC(F)(F)F)ccc1F [Example 198, 5-{2-acetamidoimidazo[1,2-b]pyridazin-6-yl}-N-[(1S)-1-[2-fluoro-5-(trifluoromethoxy)phenyl](2,2,2-deutero)ethyl]-2-methylpyridine-3-carboxamide]
[1]
  IC50: 16 nM
[2]; Homo sapiens
  IC50: 14 nM

## COc1ncc(-c2ccc3nc(NC(C)=O)cn3n2)cc1C(=O)NCc1cc(F)cc(F)c1OC1CC1 [Example 118, N-[(2-cyclopropoxy-3,5-difluorophenyl)methyl]-5-{2-acetamidoimidazo[1,2-b]pyridazin-6-yl}-2-methoxypyridine-3-carboxamide]
[1]
  IC50: 2 nM
[2]; Homo sapiens
  IC50: 28 nM

## CC(=O)Nc1cn2nc(-c3cc(C(=O)NCc4cc(OC(F)(F)F)ccc4F)ccc3Cl)ccc2n1 [Example 431, 4-chloro-3-{2-acetamidoimidazo [1,2-b]pyridazin-6-yl}-N-{[2-fluoro-5-(trifluoromethoxy)phenyl]methyl} benzamide]
[1]
  IC50: 7 nM
[2]; Homo sapiens
  IC50: 91 nM

## [2H]C([2H])([2H])[C@@H](NC(=O)c1cc(-c2ccc3nc(NC(C)=O)cn3n2)c(C)nc1C)c1cc(C(F)(F)F)ccc1F [Example 67, 5-{2-acetamidoimidazo[1,2-b]pyridazin-6-yl}-N-[(1R)-1-[2-fluoro-5-(trifluoromethyl)phenyl](2,2,2-deutero)ethyl]-2,6-dimethylpyridine-3-carboxamide]
[1]
  IC50: 14 nM
[2]; Homo sapiens
  IC50: 14 nM

## COc1ncc(-c2ccc3nc(NC(C)=O)cn3n2)cc1C(=O)NC(C)c1cccc(OC(F)(F)F)c1 (stereo not shown) [Example 123, 5-{2-acetamidoimidazo[1,2-b]pyridazin-6-yl}-2-methoxy-N-{1-[3-(trifluoro-methoxy)phenyl]ethyl}pyridine-3-carboxamide]
[1]
  IC50: 37 nM
[2]; Homo sapiens
  IC50: 218 nM

## CC(=O)Nc1cn2nc(-c3ccc(Cl)c(C(=O)N[C@H](C)c4cc(OC(F)(F)F)ccc4F)c3F)ccc2n1 [Example 388, 6-chloro-3-{2-acetamidoimidazo [1,2-b]pyridazin-6-yl}-2-fluoro-N-[(1R)-1-[2-fluoro-5-(trifluoromethoxy)phenyl]ethyl] benzamide]
[1]
  IC50: 7 nM
[2]; Homo sapiens
  IC50: 2 nM

## COc1ncc(-c2ccc3nc(NC(C)=O)cn3n2)cc1C(=O)NCc1cc(F)cc(F)c1OCC1CCC1 [Example 97, N-{[2-(cyclobutylmethoxy)-3,5-difluorophenyl]methyl}-5-{2-acetamidoimidazo[1,2-b]pyridazin-6-yl}-2-methoxypyridine-3-carboxamide]
[1]
  IC50: 2 nM
[2]; Homo sapiens
  IC50: 2 nM

## COc1ncc(-c2ccc3nc(NC(C)=O)cn3n2)cc1C(=O)NCc1cccc(F)c1OC(C)C1CC1 (stereo not shown) [Example 134, N-{[2-(1-cyclopropylethoxy)-3-fluorophenyl]methyl}-5-{2-acetamidoimidazo[1,2-b]pyridazin-6-yl}-2-methoxypyridine-3-carboxamide]
[1]
  IC50: 18 nM
[2]
  IC50: 28 nM

## 5-{2-acetamidoimidazo[1,2-b]pyridazin- 6-yl}-N-{[3-fluoro-5- (trifluoromethoxy)phenyl]methyl}-2,6- dimethylpyridine-3-carboxamide, TFA [Example 79]
[1]
  IC50: 38 nM
[2]
  IC50: 46 nM

## [2H]C([2H])([2H])Oc1nc(C)c(-c2ccc3nc(NC(C)=O)cn3n2)cc1C(=O)NCc1cc(F)cc(F)c1OCC1CC1 [Example 177, N-{[2-(cyclopropylmethoxy)-3,5-difluorophenyl]methyl}-5-{2-acetamidoimidazo[1,2-b]pyridazin-6-yl}-2-(deutero)methoxy-6-methylpyridine-3-carboxamide]
[1]
  IC50: 2 nM
[2]; Homo sapiens
  IC50: 3 nM
